# Experimental data as given in PubChem BioAssay AID2060623 (Molecular Pharmacology Branch, DTP, NCI, 2025).
# Tested on: 227483-062-R1-J1-PDC complex spheroids with HUVEC/MSC, viability
# Experiment: Anticancer human tumor 227483-062-R1-J1-PDC patient-derived pancreatic carcinoma cell line growth inhibition [CLK]
# Settings: for IC50: curve of first compound; for viability, T/C: stronger effect = lower value
# Summary of the method: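 Multi-cell-type spheroids combined patient-derived tumor cells with HUVEC endothelial cells and human mesenchymal stem cells. Paired agents were dosed in half-log steps down from about clinical Cmax, or from 10 microM where Cmax was unknown.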
# [1] = second compound 0.0316 µM, first compound 0.0316 µM
# [2] = second compound 0.0316 µM, first compound 0.1 µM
# [3] = second compound 0.0316 µM, first compound 0.316 µM
# [4] = second compound 0.0316 µM, first compound 1 µM
# [5] = second compound 0.1 µM, first compound 0.0316 µM
# [6] = second compound 0.1 µM, first compound 0.1 µM
# [7] = second compound 0.1 µM, first compound 0.316 µM
# [8] = second compound 0.1 µM, first compound 1 µM
# [9] = second compound 0.316 µM, first compound 0.0316 µM
# [10] = second compound 0.316 µM, first compound 0.1 µM
# [11] = second compound 0.316 µM, first compound 0.316 µM
# [12] = second compound 0.316 µM, first compound 1 µM
# [13] = second compound 1 µM, first compound 0.0316 µM
# [14] = second compound 1 µM, first compound 0.1 µM
# [15] = second compound 1 µM, first compound 0.316 µM
# [16] = second compound 1 µM, first compound 1 µM
# [17] = second compound 3.16 µM, first compound 0.0316 µM
# [18] = second compound 3.16 µM, first compound 0.1 µM
# [19] = second compound 3.16 µM, first compound 0.316 µM
# [20] = second compound 3.16 µM, first compound 1 µM
# [21] = second compound 10 µM, first compound 0.0316 µM
# [22] = second compound 10 µM, first compound 0.1 µM
# [23] = second compound 10 µM, first compound 0.316 µM
# [24] = second compound 10 µM, first compound 1 µM
# 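Further: spheroids exposed to compounds for seven days before readout.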
# 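Wherever viability, T/C is given: percent of DMSO vehicle control luminescence as 100% viability.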
smiles,measurement,setting,value
CC(Nc1ccc2c(c1)OCCn1cc(N3C(=O)OCC3C(F)F)nc1-2)C(N)=O (centres undefined) + CN1CCN(c2cc(C(=O)Nc3cc4cc(-c5cnn(C)c5)ccc4cn3)ccn2)CC1,IC50,second compound 0.0316 µM,> 10000 nM
same,IC50,second compound 0.1 µM,248 nM
same,IC50,second compound 0.316 µM,< 31.6 nM
same,IC50,second compound 1 µM,< 31.6 nM
same,IC50,second compound 3.16 µM,< 31.6 nM
same,IC50,second compound 10 µM,< 31.6 nM
same,"viability, T/C",[1],108%
same,"viability, T/C",[2],81.5%
same,"viability, T/C",[3],70%
same,"viability, T/C",[4],77.8%
same,"viability, T/C","second compound 0.0316 µM, first compound 3.16 µM",63%
same,"viability, T/C","second compound 0.0316 µM, first compound 10 µM",66.1%
same,"viability, T/C",[5],72.6%
same,"viability, T/C",[6],60.6%
same,"viability, T/C",[7],47.2%
same,"viability, T/C",[8],45.7%
same,"viability, T/C","second compound 0.1 µM, first compound 3.16 µM",48.7%
same,"viability, T/C","second compound 0.1 µM, first compound 10 µM",44.8%
same,"viability, T/C",[9],7.83%
same,"viability, T/C",[10],6.06%
same,"viability, T/C",[11],6.08%
same,"viability, T/C",[12],6.51%
same,"viability, T/C","second compound 0.316 µM, first compound 3.16 µM",6.66%
same,"viability, T/C","second compound 0.316 µM, first compound 10 µM",5.69%
same,"viability, T/C",[13],3.5%
same,"viability, T/C",[14],1.22%
same,"viability, T/C",[15],1.34%
same,"viability, T/C",[16],1.35%
same,"viability, T/C","second compound 1 µM, first compound 3.16 µM",2.69%
same,"viability, T/C","second compound 1 µM, first compound 10 µM",2.57%
same,"viability, T/C",[17],5.8%
same,"viability, T/C",[18],3.43%
same,"viability, T/C",[19],2.3%
same,"viability, T/C",[20],2.9%
same,"viability, T/C","second compound 3.16 µM, first compound 3.16 µM",2.51%
same,"viability, T/C","second compound 3.16 µM, first compound 10 µM",2.34%
same,"viability, T/C",[21],2.26%
same,"viability, T/C",[22],2.36%
same,"viability, T/C",[23],2.91%
same,"viability, T/C",[24],1.47%
same,"viability, T/C","second compound 10 µM, first compound 3.16 µM",1.7%
same,"viability, T/C","second compound 10 µM, first compound 10 µM",3.3%
CCN1CCN(Cc2ccc(Nc3ncc(F)c(-c4cc(F)c5nc(C)n(C(C)C)c5c4)n3)nc2)CC1 + CN1CCN(c2cc(C(=O)Nc3cc4cc(-c5cnn(C)c5)ccc4cn3)ccn2)CC1,IC50,second compound 0.0316 µM,> 1000 nM
same,IC50,second compound 0.1 µM,> 1000 nM
same,IC50,second compound 0.316 µM,< 3.16 nM
same,IC50,second compound 1 µM,< 3.16 nM
same,IC50,second compound 3.16 µM,< 3.16 nM
same,IC50,second compound 10 µM,< 3.16 nM
same,"viability, T/C","second compound 0.0316 µM, first compound 0.00316 µM",97.5%
same,"viability, T/C","second compound 0.0316 µM, first compound 0.01 µM",93.4%
same,"viability, T/C",[1],101%
same,"viability, T/C",[2],93.4%
same,"viability, T/C",[3],87.6%
same,"viability, T/C",[4],72.4%
same,"viability, T/C","second compound 0.1 µM, first compound 0.00316 µM",65.8%
same,"viability, T/C","second compound 0.1 µM, first compound 0.01 µM",64.7%
same,"viability, T/C",[5],64.5%
same,"viability, T/C",[6],72.9%
same,"viability, T/C",[7],72.6%
same,"viability, T/C",[8],52%
same,"viability, T/C","second compound 0.316 µM, first compound 0.00316 µM",6.05%
same,"viability, T/C","second compound 0.316 µM, first compound 0.01 µM",8.49%
same,"viability, T/C",[9],8.54%
same,"viability, T/C",[10],9.66%
same,"viability, T/C",[11],13%
same,"viability, T/C",[12],6.42%
same,"viability, T/C","second compound 1 µM, first compound 0.00316 µM",1.57%
same,"viability, T/C","second compound 1 µM, first compound 0.01 µM",2.07%
same,"viability, T/C",[13],2.83%
same,"viability, T/C",[14],2.75%
same,"viability, T/C",[15],4.4%
same,"viability, T/C",[16],5.61%
same,"viability, T/C","second compound 3.16 µM, first compound 0.00316 µM",3.72%
same,"viability, T/C","second compound 3.16 µM, first compound 0.01 µM",6.23%
same,"viability, T/C",[17],5.4%
same,"viability, T/C",[18],5.18%
same,"viability, T/C",[19],4.88%
same,"viability, T/C",[20],8.09%
same,"viability, T/C","second compound 10 µM, first compound 0.00316 µM",3.9%
same,"viability, T/C","second compound 10 µM, first compound 0.01 µM",2.79%
same,"viability, T/C",[21],4.22%
same,"viability, T/C",[22],4.63%
same,"viability, T/C",[23],2.76%
same,"viability, T/C",[24],2.39%
